# According to ChEMBL document CHEMBL4190346, “Structure-based design, synthesis, and biological evaluation of withaferin A-analogues as potent apoptotic inducers” (Eur J Med Chem, 2017):
# Numbered stars: 1 amine (or outer) side, 2 acyl side, 3 side chain; on linkers, the order of the positions; unused ones are H or OH. Bridge positions count the residues as written; N and C are the ends. Square brackets hold non-standard residues; d marks the D form. Peptide text beside a SMILES is read from it. I, II: the chains in the order shown. Actinocin(1to9) = Cc1c2oc3c(C)ccc(C(=O)[*:2])c3nc-2c(C(=O)[*:1])c(N)c1=O; NMeV = CN[C@H](C(=O)O)C(C)C; Sar = CNCC(=O)O
# Key:
# [1] = system: A549; experiment: Cytotoxicity against human A549 cells assessed as reduction in cell viability using compound addition to cell culture cells in lag phase of growth and incubated for 48 hrs by MTT assay; format: functional, cell-based; settings: Homo sapiens, A549, 48 h; read-out: IC50
# [2] = system: Vero; experiment: Cytotoxicity against African green monkey Vero cells assessed as reduction in cell viability using compound addition to cell culture cells in log phase of growth and incubated for 48 hrs by MTT assay; format: cell-based, Chlorocebus sabaeus; settings: Chlorocebus sabaeus, Vero, 48 h; read-out: IC50
# [3] = system: MCF7; experiment: Cytotoxicity against human MCF7 cells assessed as reduction in cell viability using compound addition to cell culture cells in log phase of growth and incubated for 48 hrs by MTT assay; format: functional, cell-based; settings: Homo sapiens, MCF7, 48 h; read-out: IC50
# [4] = system: HeLa; experiment: Cytotoxicity against human HeLa cells assessed as reduction in cell viability using compound addition to cell culture cells in lag phase of growth and incubated for 48 hrs by MTT assay; format: functional, cell-based; settings: Homo sapiens, HeLa, 48 h; read-out: IC50
# [5] = system: Vero; experiment: Cytotoxicity against African green monkey Vero cells assessed as reduction in cell viability using compound addition to cell culture cells in lag phase of growth and incubated for 48 hrs by MTT assay; format: cell-based, Chlorocebus sabaeus; settings: Chlorocebus sabaeus, Vero, 48 h; read-out: IC50
# [6] = system: A549; experiment: Cytotoxicity against human A549 cells assessed as reduction in cell viability using compound addition to cell culture cells in log phase of growth and incubated for 48 hrs by MTT assay; format: functional, cell-based; settings: Homo sapiens, A549, 48 h; read-out: IC50
# [7] = system: MCF7; experiment: Cytotoxicity against human MCF7 cells assessed as reduction in cell viability using compound addition to cell culture cells in lag phase of growth and incubated for 48 hrs by MTT assay; format: functional, cell-based; settings: Homo sapiens, MCF7, 48 h; read-out: IC50
# [8] = system: HeLa; experiment: Cytotoxicity against human HeLa cells assessed as reduction in cell viability using compound addition to cell culture cells in log phase of growth and incubated for 48 hrs by MTT assay; format: functional, cell-based; settings: Homo sapiens, HeLa, 48 h; read-out: IC50
SMILES,IC50 [1] [µM],IC50 [2] [µM],IC50 [3] [µM],IC50 [4] [µM],IC50 [5] [µM],IC50 [6] [µM],IC50 [7] [µM],IC50 [8] [µM]
COC(=O)CCC(=O)OCC1=C(C)C[C@H]([C@@H](C)[C@H]2CC[C@H]3[C@@H]4C[C@H]5O[C@]56[C@@H](O)C=CC(=O)[C@]6(C)[C@H]4CC[C@]23C)OC1=O,2.3,0.6,1.6,0.9,0.6,3.7,0.4,2.9
C[C@@H]([C@H]1CC[C@H]2[C@@H]3C[C@H]4O[C@]45[C@@H](O)[C@H]4O[C@H]4C(=O)[C@]5(C)[C@H]3CC[C@]12C)[C@H]1C[C@@]2(C)O[C@@]2(CO)C(=O)O1,> 40,> 40,> 40,> 40,> 40,> 40,> 40,> 40
COCC1=C(C)C[C@H]([C@@H](C)[C@H]2CC[C@H]3[C@@H]4C[C@H]5O[C@]56[C@@H](O)[C@@H](OC)CC(=O)[C@]6(C)[C@H]4CC[C@]23C)OC1=O,> 40,> 40,21.6,> 40,36.9,> 40,26.9,> 40
CC1=C(CO)C(=O)O[C@@H]([C@@H](C)[C@H]2CC[C@H]3[C@@H]4C[C@H]5O[C@]56[C@@H](O)[C@H]5O[C@H]5C(=O)[C@]6(C)[C@H]4CC[C@]23C)C1,> 40,> 40,> 40,> 40,> 40,> 40,> 40,> 40
CO[C@H]1C=CC(=O)[C@]2(C)[C@H]3CC[C@]4(C)[C@@H]([C@H](C)[C@H]5CC(C)=C(CO)C(=O)O5)CC[C@H]4[C@@H]3C[C@H]3O[C@]132,4,1.5,1.7,2.1,0.9,4.4,1.1,3.8
CC1=C(CO)C(=O)O[C@@H]([C@@H](C)[C@H]2CC[C@H]3[C@@H]4C[C@H]5O[C@]56[C@@H](O)CCC(=O)[C@]6(C)[C@H]4CC[C@]23C)C1,–,24.2,12.2,–,–,19.7,–,32.2
"Cc1c2oc3c(C)ccc(C(=O)N[C@@H]4C(=O)N[C@H](C(C)C)C(=O)N5CCC[C@H]5C(=O)N(C)CC(=O)N(C)[C@@H](C(C)C)C(=O)O[C@@H]4C)c3nc-2c(C(=O)N[C@@H]2C(=O)N[C@H](C(C)C)C(=O)N3CCC[C@H]3C(=O)N(C)CC(=O)N(C)[C@@H](C(C)C)C(=O)O[C@@H]2C)c(N)c1=O [DACTINOMYCIN] (I: T[dV]P[Sar][NMeV] / II: T[dV]P[Sar][NMeV]; ester I:1-I:C, II:1-II:C; linker I:N-II:N via Actinocin(1to9))",–,0.011,0.048,–,–,0.008,–,0.0032
CC1=C(CO[Si](C)(C)C(C)(C)C)C(=O)O[C@@H]([C@@H](C)[C@H]2CC[C@H]3[C@@H]4C[C@H]5O[C@]56[C@@H](O)C=CC(=O)[C@]6(C)[C@H]4CC[C@]23C)C1,–,0.8,1.2,–,–,4,–,3.1
CC(=O)OCC1=C(C)C[C@H]([C@@H](C)[C@H]2CC[C@H]3[C@@H]4C[C@H]5O[C@]56[C@@H](O)C=CC(=O)[C@]6(C)[C@H]4CC[C@]23C)OC1=O,–,5.9,4.6,–,–,–,–,10.2
Sc1ncnc2nc[nH]c12 [MERCAPTOPURINE ANHYDROUS],–,> 117,–,–,–,–,–,–
CC1=C(CO)C(=O)O[C@@H]([C@@H](C)[C@H]2CC[C@H]3[C@@H]4C[C@H](Cl)[C@]5(O)[C@@H](O)C=CC(=O)[C@]5(C)[C@H]4CC[C@]23C)C1,–,–,7.9,–,–,16.1,–,17.5
